pIC50, pKd, pKi: −log10 of the molar value.
Legend:
Nonstructural protein 5 [1] = biological target: T1, Nonstructural protein 5 (Dengue virus, UniProt V5TFZ2); test: Inhibition of DENV3 NS5 RdRp using ss-RNA PolyC as template and GTP as substrate assessed as decrease in dsRNA levels after 1 hr by PicoGreen-based fluorescence assay; parameters: species or system dengue virus type 3
Nonstructural protein 5 [2] = biological target: T1, Nonstructural protein 5; test: Inhibition of DENV3 full length NS5 RdRp assessed as decrease in dsRNA levels preincubated for 20 mins followed by ss-RNA and ATTO-CTP, ATP, GTP and UTP addition measured after 120 mins by FAPA assay; parameters: species or system dengue virus type 3
Nonstructural protein 5 [3] = biological target: T1, Nonstructural protein 5; test: Mixed type inhibition of DENV3 NS5 RdRp using increasing concentration of ss-RNA PolyC as template assessed as free enzyme after 1 hr in presence of GTP substrate by Lineweaver-Burk double reciprocal plot analysis; parameters: species or system dengue virus type 3
Nonstructural protein 5 [4] = biological target: T1, Nonstructural protein 5; test: Mixed type inhibition of DENV3 NS5 RdRp using increasing concentration of ss-RNA PolyC as template assessed as enzyme-substrate complex after 1 hr in presence of GTP substrate by Lineweaver-Burk double reciprocal plot analysis; parameters: species or system dengue virus type 3
Nonstructural protein 5 [5] = biological target: T1, Nonstructural protein 5; test: Mixed type inhibition of DENV3 NS5 RdRp using increasing concentration of GTP as substrate assessed as free enzyme after 1 hr in presence of ss-RNA PolyC template by Lineweaver-Burk double reciprocal plot analysis; parameters: species or system dengue virus type 3
Nonstructural protein 5 [6] = biological target: T1, Nonstructural protein 5; test: Mixed type inhibition of DENV3 NS5 RdRp using increasing concentration of GTP as substrate assessed as enzyme-substrate complex after 1 hr in presence of ss-RNA PolyC template by Lineweaver-Burk double reciprocal plot analysis; parameters: species or system dengue virus type 3
Nonstructural protein 5 [7] = biological target: T1, Nonstructural protein 5; test: Binding affinity to DENV3 NT-647-NHS labeled NS5 RdRp after 1 hr by microscale thermophoresis method; parameters: species or system dengue virus type 3
[8] = Cytotoxicity against African green monkey Vero E6 cells by Cell Titer-blue method; assay type: cell-based, Vero C1008; details: chlorocebus sabaeus
[9] = Induction of colloidal aggregate formation in aqueous medium at 50 uM measured for 5 mins by light scattering-based photon correlation spectroscopy; assay type: physicochemical; details: buffer

T1 sequence (V5TFZ2 whole entry): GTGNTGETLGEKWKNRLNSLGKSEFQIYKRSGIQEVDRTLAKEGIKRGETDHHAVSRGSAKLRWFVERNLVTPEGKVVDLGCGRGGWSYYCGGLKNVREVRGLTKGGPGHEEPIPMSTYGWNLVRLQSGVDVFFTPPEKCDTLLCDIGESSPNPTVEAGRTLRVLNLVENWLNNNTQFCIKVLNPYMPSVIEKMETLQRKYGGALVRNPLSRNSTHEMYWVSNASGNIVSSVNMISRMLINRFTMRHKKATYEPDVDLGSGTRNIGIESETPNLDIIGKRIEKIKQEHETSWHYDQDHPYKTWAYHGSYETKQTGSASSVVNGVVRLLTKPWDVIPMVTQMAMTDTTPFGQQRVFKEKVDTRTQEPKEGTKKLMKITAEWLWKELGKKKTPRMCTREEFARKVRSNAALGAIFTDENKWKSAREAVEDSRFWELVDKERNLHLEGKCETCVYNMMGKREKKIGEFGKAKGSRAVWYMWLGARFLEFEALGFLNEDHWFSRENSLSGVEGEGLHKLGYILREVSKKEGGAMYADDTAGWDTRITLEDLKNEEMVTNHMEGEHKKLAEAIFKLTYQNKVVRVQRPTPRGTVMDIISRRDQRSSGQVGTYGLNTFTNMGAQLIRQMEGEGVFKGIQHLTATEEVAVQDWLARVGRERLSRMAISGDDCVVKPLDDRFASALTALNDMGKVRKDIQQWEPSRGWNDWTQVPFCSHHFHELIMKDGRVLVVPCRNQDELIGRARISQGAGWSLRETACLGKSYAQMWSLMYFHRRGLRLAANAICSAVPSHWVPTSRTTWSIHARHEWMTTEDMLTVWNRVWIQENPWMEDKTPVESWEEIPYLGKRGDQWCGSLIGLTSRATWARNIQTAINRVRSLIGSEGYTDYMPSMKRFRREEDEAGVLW

Row | SMILES | pIC50 (Nonstructural protein 5 [1]) | also measured
1 | CCOC1=CS(=O)(=O)Nc2ccc(Oc3ccccc3Br)cc21 | 4.38 | –
2 | O=C(OC1=CS(=O)(=O)Nc2ccc(Oc3cccc(Br)c3)cc21)c1ccccc1 | 5.15 | –
3 | CCc1cccc(Oc2ccc3c(c2)C(OC(=O)c2ccccc2)=CS(=O)(=O)N3)c1 | 5.16 | –
4 | COc1ccc(C(=O)OC2=CS(=O)(=O)Nc3ccc(Oc4cccc(Br)c4)cc32)cc1[N+](=O)[O-] | 5.33 | –
5 | COc1cc(C)c(C(=O)NS(=O)(=O)c2cccc3cccnc23)cc1-c1ccc(C#CCO)s1 | – | pIC50 (Nonstructural protein 5 [2]): 7.80
6 | O=C1CCN(C(=O)c2ccccc2)c2ccc(Oc3ccccc3Br)cc21 | < 4.30 | –
7 | COC1=CS(=O)(=O)Nc2ccc(Oc3ccccc3Br)cc21 | < 4.30 | –
8 | O=C(OC1=CS(=O)(=O)Nc2ccc(Oc3cccc(Br)c3)cc21)c1cccc([N+](=O)[O-])c1 | 5.08 | –
9 | COc1cccc(Oc2ccc3c(c2)C(OC(=O)c2ccccc2)=CS(=O)(=O)N3)c1 | 4.69 | –
10 | O=C(OC1=CS(=O)(=O)Nc2ccc(Oc3cccc(Br)c3)cc21)c1ccc(F)c(F)c1 | 6.05 | –
11 | O=C(OC1=CS(=O)(=O)Nc2ccc(Oc3cccc(F)c3)cc21)c1ccccc1 | 5.15 | –

More lines, main results first:

Row | pIC50 (Nonstructural protein 5 [1]) | SMILES | also measured
12 | 4.76 | CN1c2c(C(=O)Nc3ccc(NS(C)(=O)=O)cc3)nn(-c3cccc(F)c3)c2-c2ccccc2S1(=O)=O | –
13 | 4.87 | CN1c2c(C(=O)Nc3ccc(NS(C)(=O)=O)cc3)nn(-c3ccc(Cl)cc3)c2-c2ccccc2S1(=O)=O | –
14 | 4.85 | Cc1ccc(-n2nc(C(=O)Nc3ccc(NS(C)(=O)=O)cc3)c3c2-c2ccccc2S(=O)(=O)N3C)cc1 | –
15 | 4.80 | CC(C)(C)c1cccc(Oc2ccc3c(c2)C(OC(=O)c2ccccc2)=CS(=O)(=O)N3)c1 | –
16 | 5.59 | CN1c2ccc(Oc3cccc(Br)c3)cc2C(OC(=O)c2ccccc2)=CS1(=O)=O | –
17 | 4.34 | COC1=CS(=O)(=O)N(C(=O)c2ccccc2)c2ccc(Oc3ccccc3Br)cc21 | –
18 | 5.77 | O=C(O)c1cc(Oc2cccc(Br)c2)ccc1NS(=O)(=O)c1ccc([N+](=O)[O-])cc1 | –
19 | 5.33 | O=C(OC1=CS(=O)(=O)Nc2ccc(Oc3ccc(Br)cc3)cc21)c1ccccc1 | –
20 | 5.20 | COc1ccc(C(=O)OC2=CS(=O)(=O)Nc3ccc(Oc4ccccc4Br)cc32)cc1[N+](=O)[O-] | –
21 | 4.51 | O=C(OC1=CS(=O)(=O)Nc2ccc(Oc3ccccc3Br)cc21)c1ccccc1 | –
22 | 6.22 | O=C(OC1=CS(=O)(=O)Nc2ccc(Oc3ccccc3Br)cc21)c1ccc(F)c(F)c1 | pKi (Nonstructural protein 5 [3]): 5.81; pKi (Nonstructural protein 5 [4]): 5.36; pKi (Nonstructural protein 5 [5]): 6.60; pKi (Nonstructural protein 5 [6]): 5.80; pKd (Nonstructural protein 5 [7]): 5.96; CC50 [8]: 80 µM; Activity [9]: Not Active
23 | 5.35 | O=C(O)c1cc(Oc2cccc(Br)c2)ccc1NS(=O)(=O)c1ccccc1 | –
24 | 4.94 | O=C1CS(=O)(=O)N(C(=O)c2ccccc2)c2ccc(Oc3ccccc3Br)cc21 | –

Source: ChEMBL document CHEMBL4251565, “Functionalized 2,1-benzothiazine 2,2-dioxides as new inhibitors of Dengue NS5 RNA-dependent RNA polymerase” (Eur J Med Chem, 2018)
